The values below come from patent publication US7425562B2, “Inhibitors of cruzipain and other cysteine proteases” (Amura Therapeutics Ltd., priority 2001, dated 2008).

Broadly, the Ki is a measure of affinity in units of concentration, obtained from inhibition or displacement.

What all share (assay type): biochemical
One assay concerns the target T1, Human Cathepsin K (Homo sapiens, UniProt P43235).
T1 construct: Dr. Boris Turk (Josef Stefan Institute, Ljubljana, Slovenia)
T1 sequence (P43235 115-329): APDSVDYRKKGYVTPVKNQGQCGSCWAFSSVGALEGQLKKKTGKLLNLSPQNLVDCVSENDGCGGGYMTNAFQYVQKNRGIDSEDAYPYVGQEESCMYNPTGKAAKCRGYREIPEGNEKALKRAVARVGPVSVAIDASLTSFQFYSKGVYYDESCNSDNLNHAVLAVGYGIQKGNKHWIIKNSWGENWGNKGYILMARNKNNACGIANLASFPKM
Kind of assay: Cathepsin peptidase activity assay, human cathepsin K (Ki). Conditions: pH 5.5, 25±1° C. As to the method: (§1) Assay protocols were based on literature precedent (Tablel; Barrett, A. J., Rawlings, N. D. and Woessner, J. F., 1998, Handbook of Proteolytic Enzymes, Academic Press, London and references therein) and modified as required to suit local assay protocols. Enzyme was added as required to initiate the reaction and the activity, as judged by the change in fluorescence upon conversion of substrate to product, was monitored over time. All assays were carried out at 25±1° C.
(§2) Bovine cathepsin S, human cathepsin L, human cathepsin H and human cathepsin B were obtained from CN Biosciences. Recombinant human cathepsin S, human cathepsin K and human cathepsin X were obtained from Dr. Boris Turk (Josef Stefan Institute, Ljubljana, Slovenia). Unless otherwise stated, all peptidase activity assays were carried out in 10 mM bis-tris-propane (BTP), pH 6.5 containing 1 mM EDTA, 5 mM 2-mercaptoethanol and 1 mM CaCl2. Human cathepsin H activity assays were carried out in 10 mM BTP pH 6.5, 142 mM […], 1 mM CaCl2, 1 mM EDTA, 1 mM DTT, 0.035 mM Zwittergent 3-16. Human cathepsin K assays were carried out in 100 mM sodium acetate; pH 5.5 containing 20 mM L-cysteine and 1 mM EDTA (Bossard, M. J., et. al., J. Biol. Chem., 21, 12517-12524, 1996). Human cathepsin X assays were carried out in 100 mM sodium acetate; pH 5.5 containing 20 mM L-cysteine; 0.05% (w/v) Brij 35 and 1 mM EDTA (Santamaria, I., et. al., J. Biol. Chem., 273, 16816-16823, 1998; Klemencic, J, et al., Eur. J. Biochem., 267, 5404-5412, 2000). […] The rate of conversion of substrate to product was derived from the slope of the increase in fluorescence monitored continuously over time.
(§3) The apparent inhibition constant (Ki) for each compound was determined on the basis that inhibition was reversible and occurred by a pure-competitive mechanism. The Ki values were calculated, from the dependence of enzyme activity as a function of inhibitor concentration, by direct regression analysis (Prism v 3.02) using Equation 2 (Cornish-Bowden, A., 1995.).
(§4) In situations where the apparent dissociation constant (Ki^app) approached the enzyme concentrations, the Ki^app values were calculated using a quadratic solution in the form described by Equation 3 (Morrison, J. F. Trends Biochem. Sci., 7, 102-105, 1982; Morrison, J. F. Biochim. Biophys. Acta, 185, 269-286, 1969; Stone, S. R. and Hofsteenge, J. Biochemistry, 25, 4622-4628, 1986).

The target in the next assay is T2, Bovine Cathepsin S (Bos taurus, UniProt P25326).
T2 construct: purchased CN Biosciences
Nature of the assay: Cathepsin peptidase activity assay, bovine cathepsin S (Ki). Conditions: boc-Val-Leu-Lys-AMC, pH 6.5, 25±1° C. As to the method: as §1, §2, §3, §4

The target of the next assay is T3, Human Cathepsin L (Homo sapiens, UniProt P07711).
T3 construct: purchased CN Biosciences
Nature of the assay: Cathepsin peptidase activity assay, human cathepsin L (Ki). Conditions: Ac-Phe-Arg-AMC, pH 6.5, 25±1° C. As to the method: as §1, §2, §3, §4

The target of a further assay is T4, Cruzipain (Trypanosoma cruzi, UniProt P25779).
T4 construct: Wild-type cruzipain, derived from Trypanosoma cruzi Dm28 epimastigotes; tissue Dr. Julio Scharfstein (Instituto de Biofisica Carlos Chagas Filho); host or cells: Trypanosoma cruzi Dm28 epimastigotes
Kind of assay: Trypanosoma cruzi cruzipain peptidase activity assay (Ki). Conditions: wild-type cruzipain from Trypanosoma cruzi Dm28 epimastigotes, pH 6.75, 25±1° C. The method, then: as §1
Wild-type cruzipain, derived from Trypanosoma cruzi Dm28 epimastigotes, was obtained from Dr. Julio Scharfstein (Instituto de Biofisica Carlos Chagas Filho, Universidade Federal do R^10 de Janeiro, R^10 de Janeiro, Brazil). Activity assays were carried out in 100 mM sodium phosphate, pH 6.75 containing 1 mM EDTA and 10 mM Loysteine using 2.5 nM enzyme. Ac-Phe-Arg-AMC (KM^app≈12 μM) and D-Val-Leu-Lys-AMC (KM^app≈4 μM) were used as the substrates. Routinely, Ac-FR-AMC was used at a concentration equivalent to KM^app and D-Val-Leu-Lys-AMC was used at a concentration of 25 μM. The rate of conversion of substrate to product was derived from the slope of the increase in fluorescence monitored continuously over time.
as §3, §4

T2 sequence (P25326 115-331): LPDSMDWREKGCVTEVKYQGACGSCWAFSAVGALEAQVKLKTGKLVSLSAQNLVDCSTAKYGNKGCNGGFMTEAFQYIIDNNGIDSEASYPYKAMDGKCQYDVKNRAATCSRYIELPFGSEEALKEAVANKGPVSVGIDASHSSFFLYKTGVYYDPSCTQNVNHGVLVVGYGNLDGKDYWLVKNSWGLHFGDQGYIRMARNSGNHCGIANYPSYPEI
T3 sequence (P07711 114-333): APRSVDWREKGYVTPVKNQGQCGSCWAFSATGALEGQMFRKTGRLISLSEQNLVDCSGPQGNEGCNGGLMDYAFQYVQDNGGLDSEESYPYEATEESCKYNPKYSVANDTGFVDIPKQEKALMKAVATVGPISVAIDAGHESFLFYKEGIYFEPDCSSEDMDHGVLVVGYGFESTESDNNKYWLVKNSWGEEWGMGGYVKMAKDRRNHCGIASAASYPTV
T4 sequence (P25779 123-467): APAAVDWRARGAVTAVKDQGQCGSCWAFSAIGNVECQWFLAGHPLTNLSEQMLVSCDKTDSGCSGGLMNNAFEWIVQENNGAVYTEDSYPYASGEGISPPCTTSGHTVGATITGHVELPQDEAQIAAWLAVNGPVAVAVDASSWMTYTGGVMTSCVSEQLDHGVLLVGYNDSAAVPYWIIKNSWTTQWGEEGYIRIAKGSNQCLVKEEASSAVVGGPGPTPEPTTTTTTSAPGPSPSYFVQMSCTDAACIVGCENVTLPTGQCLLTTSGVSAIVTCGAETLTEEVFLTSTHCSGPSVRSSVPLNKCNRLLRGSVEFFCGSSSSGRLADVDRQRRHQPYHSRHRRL

Consider `O=C(N[C@@H](Cc1ccc(O)cc1)C(=O)N1CC[C@H]2OCC(=O)[C@H]21)c1cccc2ccccc12` [Example 69, (3aS, 6aR) Naphthalene-1-carboxylic Acid [1S-(4-hydroxybenzyl)-2-oxo-2-(3-oxo-hexahydrofuro[3,2-b]pyrrol-4-yl)ethyl]amide], for which the Ki on Human Cathepsin K is over 100 µM; on Bovine Cathepsin S, over 10 µM; on Human Cathepsin L it was 0.8 µM; on Cruzipain, over 5 µM.

Regarding `CC(C)C[C@H](NC(=O)c1ccc(Oc2ccccc2)cc1)C(=O)N1CC[C@H]2OCC(=O)[C@H]21` [Example 10, (3aS, 6aR) N-[3-methyl-1S-(3-oxo-hexahydrofuro[3,2-b]pyrrole-4-carbonyl)butyl]-4-phenoxybenzamide], the Ki at Human Cathepsin K is 0.1 µM; on Bovine Cathepsin S, over 10 µM; on Human Cathepsin L, over 25 µM; at Cruzipain, over 5 µM.

For `O=C(N[C@@H](CSCc1ccccc1)C(=O)N1CC[C@H]2OCC(=O)[C@H]21)c1ccoc1` [Example 48, (3aS, 6aR) Furan-3-carboxylic Acid [1R-benzylsulfanylmethyl-2-oxo-2-(3-oxo-hexahydrofuro[3,2-b]pyrrol-4-yl)ethyl]amide], the Ki on Human Cathepsin K was over 10 µM; on Bovine Cathepsin S it was 0.3 µM; at Human Cathepsin L, over 100 µM; on Cruzipain, over 25 µM.

With `CC(C)(C)c1ccc(C(=O)N[C@@H](Cc2ccc(O)cc2)C(=O)N2CC[C@H]3OCC(=O)[C@H]32)cc1` [Example 3, (3aS, 6aR) 4-tert-Butyl-N-[1S-(4-hydroxybenzyl)-2-oxo-2-(3-oxo-hexahydrofuro[3,2-b]pyrrol-4-yl)ethyl]benzamide], the Ki was over 5 µM at Human Cathepsin K, over 100 µM at Bovine Cathepsin S, over 35 µM on Human Cathepsin L and 0.2 µM at Cruzipain.
